Tested on: accumulation of sorbitol in nervous tissues
Assay: Inhibiting activity of the accumulation of sorbitol in nervous tissues of streptozotocin-diabetic rats
Assay type: in vivo, SD male rats
Details: comparison compounds with linear alkyl group at 5-position; dose not stated

| Structure (SMILES) | inhibition of the accumulation of sorbitol |
| --- | --- |
| CCCCCCCC1SC(=S)N(CC(=O)O)C1=O (centres unmarked) [3-carboxymethyl-5-n-heptylrhodanine] | hardly inhibited the accumulation of sorbitol |
| CCCC1SC(=S)N(CC(=O)O)C1=O (centres unmarked) [3-carboxymethyl-5-n-propylrhodanine] | hardly inhibited the accumulation of sorbitol |

From EP0291007A1, “Rhodanine derivative, process for preparing the same and pharmaceutical composition containing the same” (KAKEN PHARMACEUTICAL CO., LTD., priority 1987, dated 1988)
